Common to all, as to type: physicochemical
Series [1] in a line: Form stability on slurrying in aqueous solutions (PXRD). Conditions: slurry at RT in FASIF and in HCl (pH=1). An excerpt:
FIG. 16 depicts PXRD patterns of: P1 form following slurrying thereof in FASIF (fasted state simulated intestinal fluid) (top); in HCl (pH=1) (middle); and of N-2 form (bottom). […] (FIG. 14). […] (FIG. 15).

Series [2] in a line: Solid state stability of N-2 free base form. The method, then: Solid state stability was conducted only on N-2, at 5° C., 25° C., 40° C./75% RH (open and closed), and 50° C. for up to 4 weeks.
Series [3] can be described thus: Solubility of N-2 in water and solvents. The method, then:
N-2 has an aqueous solubility of <1 μg/mL in water.

Series [4] in a line: Form stability on heating (PXRD). The following applies: heating to 270° C. Here is the method: FIG. 1 depicts PXRD patterns of the N-2 form at room temperature (bottom), 165° C. (middle) and 270° C. (top).
The crystal structure for Compound 1 was determined by single crystal X-ray diffraction studies on elongated prismatic crystals grown from THF/heptane. The intermolecular hydrogen-bonding in the N-2 structure is shown in FIGS. 12A-12B; the structure contains small voids of about 20 Å^3. The experimental PXRD pattern for N-2 matches the simulated pattern which confirms the single phase identity of N-2 crystallized in bulk (FIG. 13). […] (FIG. 1).

Values after ≈ are worked out from the molar mass of the structure shown. Where two headings read alike, the source gives them in different places.

As to `Cc1cccc2c1NC(=O)[C@@H](NC(=O)[C@H](CCC(F)(F)F)[C@H](CCC(F)(F)F)C(N)=O)N=C2c1cccc(F)c1` [Compound P1], in series [1], the “Form after slurrying in aqueous solutions” value is listed as “converts to N-2”.

As a reminder, the solubility is the concentration that dissolves in the medium under given conditions. With `Cc1cccc2c1NC(=O)[C@@H](NC(=O)[C@H](CCC(F)(F)F)[C@H](CCC(F)(F)F)C(N)=O)N=C2c1cccc(F)c1` [Compound N-2], in series [2] (5° C., 25° C., 40° C./75% RH (open and closed), and 50° C. for up to 4 weeks), the “Solid state stability (chemical and physical)” value is “chemically and physically stable”. For the same compound, the “Stability when exposed to high intensity light (HIL)/ultraviolet (UV) light” value in series [2] (HIL/UV light for 7 days) was “chemically and physically stable”. For the same compound, the solubility in series [3] (PEG 400, organic solvent or mixture, read-out: solubility in PEG 400) is ~38 mg/mL (≈ 66.1 mM); in series [3] (in water, read-out: aqueous solubility) it was < 0.001 mg/mL. In addition, the “Physical form after heating” value in series [4] is on record as “No physical change in form”.

The record behind these values is patent US12577214B2, “Polymorphs of bis(fluoroalkyl)-1,4-benzodiazepinone compounds and uses thereof” (Bristol-Myers Squibb Company, priority 2020, dated 2026).
